Results taken from patent US5516790A, “Synthesis and application of alkyl-substituted dibenzofurans as antitumorigenic agents” (Texas A&M University System Technology Licensing Office, priority 1994, dated 1996).

Legend:
[1] = test system: progesterone receptor (PR); assay: Uterine progesterone receptor levels, hydroxyapatite assay (Example 8); type: in vivo, female Sprague-Dawley rats; settings: for ED40-60 for Inhibition, PRc / ED40-60 for Inhibition, PRn: cotreatment with 17β-estradiol
Description: (§1) The animals were terminated by cervical dislocation. Livers were perfused with ice-cold TEDG buffer (10 mM Tris-HCl, 1.5 mM EDTA-4Na, 1 mM dithiothreitol, 10% glycerol (v/v), pH 7.4). Following perfusion in situ, livers were removed, weighed, and homogenized in ice-cold TEDG buffer. Uteri were also removed, weighed, and homogenized in ice-cold buffer. The homogenates were then centrifuged at 800×g ([…]) for 15 minutes and the nuclear pellets were stored at -80° C. The supernatants were further centrifuged at 180,000× g for 1.5 hours. The cytosolic supernatant was also stored at -80° C. Estrogen and progesterone receptor levels were determined within 7 days.
(§2) Estrogen (ER) and progesterone (PR) receptor levels were determined by the hydroxyapatite assay as described by Clark et al. (J. Steroid Biochem. 16:323-328, 1982) and incorporated herein by reference. […] Following the incubations, samples were counted and specific binding was calculated by subtraction of nonspecific from total binding. Assuming one steroid molecule binds to one estrogen/progesterone receptor, the number of moles of receptor can be calculated given the specific activity of the radioligand. The data presented in Tables 1 through 6 are means ± SD using at least four animals per treatment group. Significant differences were determined by analysis of variance.

estrogen receptor (ER) = assay: Uterine estrogen receptor levels, hydroxyapatite assay (Example 8); type: in vivo, female Sprague-Dawley rats; settings: for ED40-60 for Inhibition, ERc / ED40-60 for Inhibition, ERn: cotreatment with 17β-estradiol
Description: A second group of animals was similarly treated with corn oil, TCDD, MCDF, or TCDD plus MCDF, all administered in corn oil at 10 ml/kg and terminated 72 hours later.
as §1, §2

female rat uterus = assay: Antiestrogenic effect on uterine wet weight, immature female Sprague-Dawley rats (Example 8); type: in vivo
[2] = dose-response, 2 μmol/kg + 17β-estradiol (2 × 10 μg/rat)
[3] = dose-response, 10 μmol/kg + 17β-estradiol (2 × 10 μg/rat)
[4] = dose-response, 25 μmol/kg + 17β-estradiol (2 × 10 μg/rat)
[5] = dose-response, 50 μmol/kg + 17β-estradiol (2 × 10 μg/rat)
[6] = 150 μmol/kg + E-2 (2 × 10 μg/rat), run B
[7] = compound alone, 150 μmol/kg (17β-estradiol: 2 × 10 μg/rat), run B
[8] = dose-response, 150 μmol/kg + 17β-estradiol (2 × 10 μg/rat)
[9] = Table 2: 50 μmol/kg + E-2 (2 × 10 μg/rat)
[10] = Table 2: compound alone, 50 μmol/kg (17β-estradiol: 2 × 10 μg/rat)
[11] = 150 μmol/kg + E-2 (2 × 10 μg/rat), run A
[12] = compound alone, 150 μmol/kg (17β-estradiol: 2 × 10 μg/rat), run A

Structure (SMILES) | ED40-60 for Inhibition, PRc [1] [µmol/kg] | ED40-60 for Inhibition, PRn [1] [µmol/kg] | Progesterone Receptor Levels, Cytosolic [1, 2] [fmol/mg protein] | Progesterone Receptor Levels, Cytosolic [1, 3] [fmol/mg protein] | Progesterone Receptor Levels, Nuclear [1, 3] [fmol/mg protein] | Progesterone Receptor Levels, Cytosolic [1, 4] [fmol/mg protein] | Progesterone Receptor Levels, Nuclear [1, 4] [fmol/mg protein] | Progesterone Receptor Levels, Cytosolic [1, 5] [fmol/mg protein] | Progesterone Receptor Levels, Nuclear [1, 5] [fmol/mg protein] | ED40-60 for Inhibition, ERc (estrogen receptor (ER)) [µmol/kg] | ED40-60 for Inhibition, ERn (estrogen receptor (ER)) [µmol/kg] | Estrogen Receptor Levels, Cytosolic (estrogen receptor (ER); [3]) [fmol/mg protein] | Estrogen Receptor Levels, Nuclear (estrogen receptor (ER); [3]) [fmol/mg protein] | Estrogen Receptor Levels, Cytosolic (estrogen receptor (ER); [4]) [fmol/mg protein] | Estrogen Receptor Levels, Nuclear (estrogen receptor (ER); [4]) [fmol/mg protein] | Estrogen Receptor Levels, Cytosolic (estrogen receptor (ER); [5]) [fmol/mg protein] | Estrogen Receptor Levels, Nuclear (estrogen receptor (ER); [5]) [fmol/mg protein] | Uterine Wet Weight (female rat uterus; [3]) [% body wt] | Uterine Wet Weight (female rat uterus; [4]) [% body wt] | Uterine Wet Weight (female rat uterus; [5]) [% body wt] | further results
Cc1cc2c(cc1Cl)oc1cc(Cl)c(Cl)cc12 [8-methyl-2,3,7-triCDF, 8-Methyl-2,3,7-Trichlorodibenzofuran] | 2 | 10 | 1673 ± 117 | 1596 ± 112 | 685 ± 62 | 1461 ± 102 | 631 ± 37 | 856 ± 60 | 605 ± 66 | 2 | 10 | 125.3 ± 6.3 | 76.8 ± 3.8 | 117.5 ± 5.9 | 72.8 ± 3.6 | 107.1 ± 5.4 | 67.3 ± 4.0 | 0.211 ± 0.019 | 0.192 ± 0.004 | 0.224 ± 0.012 | Progesterone Receptor Levels, Nuclear [1, 2]: 835 ± 50 fmol/mg protein; Estrogen Receptor Levels, Cytosolic (estrogen receptor (ER); [2]): 131.8 ± 6.6 fmol/mg protein; Estrogen Receptor Levels, Nuclear (estrogen receptor (ER); [2]): 90.2 ± 5.4 fmol/mg protein; Uterine Wet Weight (female rat uterus; [2]): 0.192 ± 0.013 % body wt
CC(C)c1cc(Cl)cc2c1oc1cc(Cl)cc(Cl)c12 [6-i-Propyl-1,3,8-triCDF] | 25 | 25 | – | – | – | – | – | – | – | 10 | 25 | – | – | – | – | – | – | – | – | – | Progesterone Receptor Levels, Cytosolic [1, 6]: 2131 ± 76 fmol/mg protein; Progesterone Receptor Levels, Nuclear [1, 6]: 272 ± 19 fmol/mg protein; Progesterone Receptor Levels, Cytosolic [1, 7]: 1225 ± 59 fmol/mg protein; Progesterone Receptor Levels, Nuclear [1, 7]: 242 ± 17 fmol/mg protein; Estrogen Receptor Levels, Cytosolic (estrogen receptor (ER); [6]): 135.5 ± 78.1 fmol/mg protein; Estrogen Receptor Levels, Nuclear (estrogen receptor (ER); [6]): 52.6 ± 2.6 fmol/mg protein; Estrogen Receptor Levels, Cytosolic (estrogen receptor (ER); [7]): 95.2 ± 6.2 fmol/mg protein; Estrogen Receptor Levels, Nuclear (estrogen receptor (ER); [7]): 57.7 ± 2.9 fmol/mg protein; Uterine Wet Weight (female rat uterus; [6]): 0.210 ± 0.012 % body wt; Uterine Wet Weight (female rat uterus; [7]): 0.154 ± 0.017 % body wt; antiuterotrophic activity (female rat uterus; rat, in vivo): surprisingly active
CCCc1cc(Cl)cc2c1oc1cc(Cl)cc(Cl)c12 [6-Propyl-1,3,8-Trichlorodibenzofuran] | – | – | – | 1501 ± 105 | 850 ± 68 | 1055 ± 74 | 515 ± 41 | 1105 ± 77 | 510 ± 41 | – | – | 105.5 ± 5.3 | 81.5 ± 4.9 | 87.8 ± 4.4 | 56.6 ± 2.8 | 66.7 ± 3.3 | 41.1 ± 2.1 | 0.192 ± 0.013 | 0.170 ± 0.010 | 0.202 ± 0.014 | Progesterone Receptor Levels, Cytosolic [1, 8]: 1190 ± 83 fmol/mg protein; Progesterone Receptor Levels, Nuclear [1, 8]: 660 ± 53 fmol/mg protein; Estrogen Receptor Levels, Cytosolic (estrogen receptor (ER); [8]): 88.2 ± 4.4 fmol/mg protein; Estrogen Receptor Levels, Nuclear (estrogen receptor (ER); [8]): 35.6 ± 1.8 fmol/mg protein; Uterine Wet Weight (female rat uterus; [8]): 0.216 ± 0.012 % body wt
Cc1cc(Cl)cc2c1oc1c(Cl)c(Cl)c(Cl)cc12 [6-Methyl-2,3,4,8-tetraCDF, 6-Methyl-2,3,4,8-tetrachlorodibenzofuran] | 2 | 10 | 1220 ± 85 | 970 ± 68 | 765 ± 61 | 1000 ± 63 | 645 ± 52 | 885 ± 53 | 450 ± 36 | 2 | 2 | 83.9 ± 4.2 | 53.8 ± 3.2 | 75.1 ± 3.8 | 49.3 ± 3.0 | 71.0 ± 3.6 | 40.0 ± 2.4 | 0.221 ± 0.020 | 0.191 ± 0.006 | 0.158 ± 0.004 | Progesterone Receptor Levels, Cytosolic [1, 9]: 795 ± 52 fmol/mg protein; Progesterone Receptor Levels, Nuclear [1, 9]: 1081 ± 131 fmol/mg protein; Progesterone Receptor Levels, Cytosolic [1, 10]: 625 ± 71 fmol/mg protein; Progesterone Receptor Levels, Nuclear [1, 10]: 457 ± 58 fmol/mg protein; Progesterone Receptor Levels, Nuclear [1, 2]: 925 ± 74 fmol/mg protein; Estrogen Receptor Levels, Cytosolic (estrogen receptor (ER); [9]): 176.3 ± 20.3 fmol/mg protein; Estrogen Receptor Levels, Nuclear (estrogen receptor (ER); [9]): 69.9 ± 9.4 fmol/mg protein; Estrogen Receptor Levels, Cytosolic (estrogen receptor (ER); [10]): 96.2 ± 11.2 fmol/mg protein; Estrogen Receptor Levels, Nuclear (estrogen receptor (ER); [10]): 31.3 ± 5.6 fmol/mg protein; Estrogen Receptor Levels, Cytosolic (estrogen receptor (ER); [2]): 86.7 ± 4.3 fmol/mg protein; Estrogen Receptor Levels, Nuclear (estrogen receptor (ER); [2]): 64.7 ± 3.9 fmol/mg protein; Uterine Wet Weight (female rat uterus; [9]): 0.163 ± 0.019 % body wt; Uterine Wet Weight (female rat uterus; [10]): 0.109 ± 0.020 % body wt; Uterine Wet Weight (female rat uterus; [2]): 0.268 ± 0.044 % body wt
Clc1cc(Cl)c2c(c1)oc1c(Cl)cc(Cl)cc12 [1,3,6,8-tetraCDF] | – | – | – | – | – | – | – | – | – | – | – | – | – | – | – | – | – | – | – | – | Progesterone Receptor Levels, Cytosolic [1, 11]: 798 ± 83 fmol/mg protein; Progesterone Receptor Levels, Nuclear [1, 11]: 291 ± 71 fmol/mg protein; Progesterone Receptor Levels, Cytosolic [1, 12]: 571 ± 49 fmol/mg protein; Progesterone Receptor Levels, Nuclear [1, 12]: 199 ± 46 fmol/mg protein; Estrogen Receptor Levels, Cytosolic (estrogen receptor (ER); [11]): 75.5 ± 17.3 fmol/mg protein; Estrogen Receptor Levels, Nuclear (estrogen receptor (ER); [11]): 16.1 ± 2.3 fmol/mg protein; Estrogen Receptor Levels, Cytosolic (estrogen receptor (ER); [12]): 55.2 ± 5.6 fmol/mg protein; Estrogen Receptor Levels, Nuclear (estrogen receptor (ER); [12]): 18.5 ± 3.8 fmol/mg protein; Uterine Wet Weight (female rat uterus; [11]): 0.187 ± 0.020 % body wt; Uterine Wet Weight (female rat uterus; [12]): 0.123 ± 0.004 % body wt
Cc1cc2c(cc1Cl)oc1cc(Cl)cc(Cl)c12 [8-Methyl-1,3,7-triCDF, 8-Methyl-1,3,7-trichlorodibenzofuran] | – | – | – | – | – | – | – | – | – | – | – | – | – | – | – | – | – | – | – | – | Progesterone Receptor Levels, Cytosolic [1, 9]: 1025 ± 151 fmol/mg protein; Progesterone Receptor Levels, Nuclear [1, 9]: 952 ± 113 fmol/mg protein; Progesterone Receptor Levels, Cytosolic [1, 10]: 503 ± 63 fmol/mg protein; Progesterone Receptor Levels, Nuclear [1, 10]: 795 ± 92 fmol/mg protein; Estrogen Receptor Levels, Cytosolic (estrogen receptor (ER); [9]): 119.0 ± 14.3 fmol/mg protein; Estrogen Receptor Levels, Nuclear (estrogen receptor (ER); [9]): 51.1 ± 7.4 fmol/mg protein; Estrogen Receptor Levels, Cytosolic (estrogen receptor (ER); [10]): 72.8 ± 8.3 fmol/mg protein; Estrogen Receptor Levels, Nuclear (estrogen receptor (ER); [10]): 26.4 ± 5.1 fmol/mg protein; Uterine Wet Weight (female rat uterus; [9]): 0.181 ± 0.007 % body wt; Uterine Wet Weight (female rat uterus; [10]): 0.127 ± 0.019 % body wt
